{
  "source": "patent US10556860B2",
  "about": "“hTERT modulators and methods of use” (Arizona Board of Regents on Behalf of the University of …, priority 2015, dated 2020)",
  "key": {"[1]": {"test_system": "G124/125A mutant hTERT 5-12 fragment", "assay": "Single-molecule laser tweezer unfolding, G124/125A mutant", "type": "biochemical, human", "settings": "2 μM, 10 mM Tris, 100 mM KCl, pH 7.4; single- and double-stranded template", "description": "Single-molecule tweezer. Preparation of the DNA construct. The DNA construct that contains the single-stranded hTERT 5-12 fragment was prepared by sandwiching the target sequence between two double-stranded DNA handles. Five deoxythymidines were added at both ends of the hTERT 5-12 fragment to reduce the interference from the double-stranded DNA handles on the target sequence. Briefly, the 2690-base-pair double-stranded DNA handle was prepared through restriction enzyme digestion of the pEGFP vector (Clontech, Mountain View, Calif.). In the first step, the vector was digested by Sad and Eagl restriction enzymes, followed by purification with agarose gel. The EagI end of the DNA fragment was labeled with digoxigenin using terminal deoxynucleotidyl transferase. […]\nSingle-molecule force-ramp assay. […] After this, the two beads were moved apart to increase the tension on the DNA tether with a loading rate of 5.5 pN/s, and the force-extension (F-X) curves were recorded using the LabVIEW program (National Instruments Corp., Austin, Tex.).\nThe F-X curves were filtered by Savitzky-Golay function with a 10 ms time constant in the MATLAB program (The Math Works, Natick, Mass.). […] The change-in-contour length (ΔL) was calculated based on the Δx through the worm-like chain model (equation 1). […]"}, "hTERT protein": {"test_system": "hTERT protein", "assay": "Western blot of hTERT protein in MCF7 cells", "type": "cell-based, human", "description": "Western blot analysis. GTC365- or DMSO-treated MCF7 cells were lysed by RIPA buffer and the supernatant of lysate was obtained by centrifugation at 14,000 rpm for 15 min. The concentration of the whole cellular protein was determined by Bradford assay. The same amount of proteins (120 μg) was separated on 8% SDS-PAGE and transferred to PVDF membrane in 20% MeOH/1× Tris-glycine. The membrane was incubated in a blocking buffer containing 5% BSA/5% non-fat milk with TBS-T (0.1% Tween 20) for 90 min at room temperature prior to overnight incubation with hTERT antibody against rabbit (1:200, Santa Cruz #H231, pAb) in 5% BSA/TBS-T buffer at 4° C. […]\nImmunoblot analysis. […] The concentration of the whole cellular protein was determined byBradford assay. […]\nBCL2 is a downstream molecule to hTERT such that BCL2 expression is activated by hTERT to repress apoptosis. To further define the effect of GTC365 on the transcription of hTERT, the relative mRNA levels of MYC and BCL2 were determined by quantitative PCR analysis in MCF7 cells after treatment with GTC365 for 72 h. […] A series of GTC260 analogs were synthesized and their effect on hTERT gene expression in MCF7A and U87 cells determined (FIG. 7). […]"}},
  "data": [
    {"smiles": "N=C(N)NCCCS(=O)(=O)Nc1ccc(Nc2c3ccccc3nc3cc([N+](=O)[O-])ccc23)cc1", "note": "[GTC365]", "values": [
      {"measurement": "full-length G-rich species (>36 nt/bp) population", "setting": "[1]", "result": "recovered"},
      {"measurement": "hTERT protein level", "setting": "hTERT protein", "result": "downregulated"}
    ]}
  ]
}
